# “And” between values parts separate entries of the source, which are not always exact repeats. Equal values may be shown once. “Also recorded” adds a separate entry of the source.
# What was measured:
# human fibroblasts = assay: Survival of fibroblast cultures at 80% and 30% confluency; assay type: cell-based; conditions: 2.5 μM; 30% vs 80% confluency
# Procedure: (§1) All cells were treated with 2.5 μM NVX-207. Percentage (means±S.E., n=3) of control-treated cells are given. […] Mean survival in NVX-207 treated fibroblasts at 80% confluency was 92% (S.E.=3.8) versus 3.8% mean survival (S.E.=0.4) at 30% confluency. […] HUVECs, keratinocytes and fibroblast cells were obtained from Lonza GmbH (Wuppertal, Germany) and cultivated according to the manufacturer's instructions.
# (§2) The IC50 value of betulinic acid in human keratinocytes was recently determined to be ˜5.0 μg/ml (Tino Galgon al., Exp Dermatol. 14:736-43, 2005), while the IC50 of NVX-207 is ˜0.7 μg/ml. Consequently, the IC50 value of NVX-207 was almost 10-fold lower compared to betulinic acid on a molar basis. […] Under normal physiological circumstances, the endothelium, as well as fibroblasts and keratinocytes of the tissue like normal skin, show relatively low turn-over and limited cell divisions to maintain tissue integrity. […] Angiogenesis also plays a role in the pathogenesis of rosacea and a topical angiogenesis inhibitor (dobesilate) for treatment of rosacea has been described. Local inhibition of angiogenic factors function may prevent skin angiogenesis and inflammation in rosacea and other angiogenesis-dependent skin diseases in which a dense network of new vessels is produced and inflammatory cells are present. […]
# [1] = tested on: bacteria obtained from the skin surface of an individual; assay: Filter disk growth inhibition on LB-agar plates; assay type: cell-based
# Procedure: 10 mm filter disks (numbered 1 to 4) were soaked in 10 μl of 10.0, 5.0, 2.5, and 1.25 mg/ml of NVX-207, respectively, and placed on LB-Agar plates on which a skin bacterial isolate had been plated. 15 ml of LB/Agar was used for pouring one plate. Control disks were soaked in 10 μl of the corresponding solvent and paced in the center of the plates. LB-Agar plates were then cultivated over night at 30° C. and bacterial growth was monitored by comparing growth inhibition zones around the soaked disks. […]
# Antibacterial effects of NVX-207 were tested against bacteria obtained from the skin surface of an individual. NVX-207 was used either as a cyclodextrin formulation (NVX-207 (at 10 mg/ml final concentration) was formulated in 2-hydroxypropyl-gamma-cyclodextrin (at 150 mg/ml final concentration) in water) (FIG. 6A), or a Tween 80/Ethanol formulation (described in Example 2) (FIG. 6B). Filter disks 1 to 4 were soaked in 10 μl of 10.0, 5.0, 2.5, and 1.25 mg/ml of NVX-207, respectively, and placed on LB-agar plates (total volume of 15 ml LB-agar per plate) on which a skin bacterial isolate had been plated at low density. Control disks placed in the center of the plates were soaked in 10 μl of the corresponding solvent. LB-Agar plates were then cultivated over night at 30° C. and bacterial growth was examined after 18 hours. […]
# [2] = tested on: Sweat gland adenocarcinoma; assay: Intratumoral treatment of canine cancer patient, sweat gland adenocarcinoma; assay type: in vivo, dog; conditions: Patient #4, NVX-207 alone 10 mg/ml in 2-hydroxypropyl-γ-cyclodextrin
# Procedure: (§3) A study was performed using NVX-207 on a canine squamous cell carcinoma of the nasal plane. […] Histology was confirmed by biopsy before treatment. Prior to each treatment, the dog was physically examined and routine blood counts and serum chemistry analyses were performed. Tumor measurements were obtained using callipers at each treatment. Tumor size was determined by the longest diameter of the target lesion or by calculating the mean of the longest diameters of the lesion treated. Tumor response was classified as stable (less than 50% change), partial—(decrease by >50%) or as a complete response if no palpable or visible evidence of tumor was available. Intralesional treatment of the patient comprised local infiltration of the local tumor, including 1 cm of the surrounding tissue, with NVX-207 in combination with cisplatin. […] Tumor recurrence was observed 18 months later. […] No further complications were observed.
# (§4) Patients 1, 2, and 3 correspond to the dogs described above with squamous, soft tissue, and mammary carcinoma, respectively. Tumor size and tumor responses were determined as in described above. Intralesional treatment of the patients comprised local infiltration of the local tumor including 1 cm of the surrounding tissue—if applicable—with NVX-207 alone (for patients #2-#4) or in combination with cisplatin (patient #1, see also FIG. 3). […]
# [3] = tested on: human umbilical vein endothelial cells (HUVEC); assay: Survival of endothelial cell cultures at 80% and 30% confluency; assay type: cell-based; conditions: 2.5 μM
# Procedure: as §1, §2
# [4] = tested on: canine basal cell carcinoma; assay type: in vivo, dog
# Source text: Differential diagnoses included virus induced lesions such as warts which are caused by papillomaviruses, and are thus an example of anti-microbial/anti-viral activity.
# pig skin = conditions: in vivo, 2 weeks
# Source text: Skin areas were visually inspected every day.
# Skin areas were visually inspected every day. Photographs were taken at three day intervals. […] On day 14, pigs were anesthetized with ketamine and azaperon, and euthanized by intracardial application of T61®.
# canine cancer patients = assay: Inflammation and infection after repeated intralesional injections in dogs; assay type: in vivo, dog; conditions: intratumoral treatment of canine malignancies
# Source text: FIGS. 3A-D show the effects of intratumoral treatment of NVX-207 in various spontaneously arising canine malignancies (before and after pictures). […] FIGS. 3B-D show NVX-207 treatment effects in a canine mammary carcinoma and two separate cases of soft tissue sarcoma, respectively. […] Microbial infections (with bacteria, fungi, viruses or protozoa) usually almost invariably accompany multiple injections under similar non-sterile conditions, because the coat of the animal cannot be efficiently sterilized. This in turn leads to unwanted treatment interruptions.
# FIGS. 3B-D show NVX-207 treatment effects in a canine mammary carcinoma and two separate cases of soft tissue sarcoma, respectively. […] Microbial infections (with bacteria, fungi, viruses or protozoa) usually almost invariably accompany multiple injections under similar non-sterile conditions, because the coat of the animal cannot be efficiently sterilized. This in turn leads to unwanted treatment interruptions.
# As noted above, strong evidence for an antibacterial activity of NVX-207 also comes from the canine cancer treatments. Dogs were treated over several months by repeated intralesional and peritumoral injections of NVX-207. […] This is highly unusual, since intralesional treatments under the same conditions are usually associated with a high incidence of serious local soft tissue infections leading to treatment interruptions. […]
# [5] = tested on: human hyperkeratotic lesion with an inflammatory component; assay: Topical treatment of human hyperkeratotic lesion; assay type: in vivo; conditions: 1% topical solution
# human keratinocytes = assay: Survival of keratinocyte cultures at 80% and 30% confluency; assay type: cell-based; conditions: 2.5 μM; 30% vs 80% confluency
# Procedure: as §1, §2
# Mammary carcinoma = assay: Intratumoral treatment of canine cancer patient, mammary carcinoma; assay type: in vivo, dog; conditions: Patient #3, NVX-207 alone 10 mg/ml in 2-hydroxypropyl-γ-cyclodextrin
# Procedure: as §3, §4
# Soft tissue sarcoma = assay: Intratumoral treatment of canine cancer patient, soft tissue sarcoma; assay type: in vivo, dog; conditions: Patient #2
# Procedure: as §3, §4
smiles,measurement,setting,value
"C=C(C)[C@@H]1CC[C@]2(C(=O)OCC(N)(CO)CO)CC[C@]3(C)[C@H](CC[C@@H]4[C@@]5(C)CC[C@H](OC(C)=O)C(C)(C)[C@@H]5CC[C@]43C)[C@@H]12 [NVX-207, 3-O-acetylbetulinic acid-2-amino-3-hydroxy-2-hydroxymethylpropyl ester]",more active against proliferating human fibroblasts,human fibroblasts,over 20 fold
same,estimated concentration at which strong inhibitory effects were seen,"[1]; Tween/Ethanol formulation, assumed distribution volume ~2.5 ml",1 µg/mL and 1.0 µg/mL
same,final concentration at which growth inhibition was seen,"[1]; cyclodextrin formulation, distribution volume approximately 1 ml",~100 µg/mL
same,Tumor response,[2],"SD (SD, stable disease)"
same,more effective in sub-confluent (30%) than nearly confluent (80%) endothelial cells,[3],~5 fold
same,reduction of lesion,"[4]; 1% topical solution every second to third day, after 3 weeks",about 90%
same,inflammation or infection at the treatment site,"[4]; dog, in vivo",absence of inflammation or infection
same,macroscopic skin irritations,pig skin,No macroscopic NVX-207 related skin irritations
same,treatment-related inflammation,canine cancer patients,completely prevented
same,side effects on treated skin,[5],"No deleterious (toxic) effects; also recorded: no reddening, inflammation or any side effects"
same,reduction of lesion,[5]; next day after only one treatment,> 80%
same,more active against proliferating keratinocytes,human keratinocytes,~6 fold
same,Tumor response,Mammary carcinoma,"SD (SD, stable disease)"
same,"OS, overall survival time",Soft tissue sarcoma,15 months
same,Tumor response,"Soft tissue sarcoma; NVX-207 alone 10 mg/ml in 2-hydroxypropyl-γ-cyclodextrin, intratumoral","PR (PR, partial remission)"
